# Data reported in patent US5712270A, “2-arylamidothiazole derivatives with CNS activity” (American Home Products Corporation, priority 1996, dated 1998).
# Tests used:
# [1] = system: scopolamine-induced hyperactivity; test: Reversal of scopolamine-induced hyperactivity in mice (swim tank); assay type: in vivo, Male CFW mice; conditions: Mus musculus, ip, 5 min, 0.3 mg/kg scopolamine.HBr, i.p., mean swimming distance, read-out: minimum effective dose (MED), reversal of scopolamine hyperactivity
# Description: The compound of Example 1 was also tested in accordance with the procedure of Symons et al, Soc. Neuroscience Abstracts 12:2, 897 (1986) in which Male CFW mice, 25 to 35 grams in weight are given the test compound in suitable vehicle plus 0.3 mg/kg scopoolamine.HBr in suitable vehicle, i.p.(3 groups of 12 animals each) or vehicle alone (1 group of 12 animals ) or vehicle plus scopolamine. HBr (1 group of 12 animals). The rates are placed in a swim tank, individually, containing 10 cm H2 O for a period of 5 minutes and the distance each animal swims is recorded.
# [2] = system: memory in patients with mild to moderate Alzheimer's Disease; conditions: cited from earlier work; for memory improvement in patients: mild to moderate Alzheimer's Disease
# [3] = system: serotonin 5-HT1A receptor; conditions: standard for anxiolytic activity; cited from earlier work
compound,measurement,setting,value
"CN(C)CCOC(=O)c1csc(NC(=O)c2cc(C(C)(C)C)c(O)c(C(C)(C)C)c2)n1 [Example 1, 2-[[3,5,-Bis(1,1-dimethylethl)-4-hydroxybenzoyl]amino]-4-thiazolecarboxylicacid 2-(dimethylamino)ethyl ester]",minimal effective dose,[1],3 mg/kg
COC(=O)C1=CCCN(C)C1 [arecoline],memory improvement in patients,[2],memory improvement in patients with mild to moderate Alzheimer's Disease
O=C1CC2(CCCC2)CC(=O)N1CCCCN1CCN(c2ncccn2)CC1 [buspirone],"affinity for the 5-HT1A serotonin receptor subtype (words, buspirone)",[3],potent affinity
Nc1c2c(nc3ccccc13)CCCC2 [tacrine],side effects,[2]; especially at the higher doses,adverse side effects especially at the higher doses
same,memory improvement in patients,[2],improvement in memory can be shown in patients with mild to moderate Alzheimer's Disease
